Key:
[1] = in humans; cited from earlier work
[2] = open vial, 40° C. and 75±5% relative humidity
Description: The aim of the study is to evaluate the stability of cocrystal Form I of the present invention.
Cocrystal Form I of the present invention obtained by the process disclosed in section 1.1.B.1.
Cocrystal Form I (55 mg) is stored in an open vial and exposed to accelerated stability conditions (40° C. and 75±5% relative humidity) according to ICH guidelines (Guidance for Industry Q1A(R2) Stability Testing of New Drug Substances and Products—available on the website http://www.ich.org/products/guidelines/quality/quality-single/article/stability-testing-of-new-drug-substances-and-products.html on Aug. 4, 2017).

SMILES	oral bioavailability [1]	stability (solid form) [2]
C=C(C)[C@@H]1CCC(C)=C[C@H]1c1c(O)cc(CCCCC)cc1O [CBD, 2-[(1R,6R)-6-isopropenyl-3-methylcyclohex-2-en-1-yl]-5-pentylbenzene-1,3-diol]	6-33%	
C=C(C)[C@@H]1CCC(C)=C[C@H]1c1c(O)cc(CCCCC)cc1O.O=C(O)[C@@H]1CCCN1 [cocrystal Form I, cocrystal of 2-[(1R,6R)-6-isopropenyl-3-methylcyclohex-2-en-1-yl]-5-pentylbenzene-1,3-diol with L-proline]		remained stable for at least three weeks

Source: patent publication US11168047B2, “Cocrystal of 2-[(1R,6R)-6-isopropenyl-3-methylcyclohex-2-en-1-yl]-5-pentylbenzene-l,3-diol” (ENANTIA, S.L., priority 2017, dated 2021)
